Source: US8067454B2, “Thio-substituted Anthra [1, 2-d] imidazole- 6, 11-dione derivatives, preparation method and application thereof” (National Defense Medical Center, priority 2010, dated 2011)

How the values were obtained:
GBM8401 = assay: MTT assay, GBM8401 tumor cell; details: concentration 10 μM, tumor cell
[1] = system: telomerase (total cell lysates of lung cancer cell line H1299); assay: Telomeric Repeat Amplification Protocol (TRAP) assay, screen of telomerase inhibitors; format: biochemical, human; details: 10 μM
Protocol: Telomeric Repeat Amplification Protocol (TRAP) Assay:
Telomerase activity was detected by a modified version of the general TRAP protocol. Telomerase products were resolved by 10% polyacrylamide gel electrophoresis and visualized by staining with SYBER Green. As a source of telomerase, the total cell lysates derived from lung cancer cell line H1299 cells were used. Protein concentration of the lysates was assayed using Bio-Rad protein assay kit using BSA standards.
In the TRAP assay, if a compound can stabilize the G-quadruplex structure such that telomerase can not act on telomere, then the effect of inhibiting the telomerase can be achieved. In the FIG. 2A to FIG. 2C, DMSO treatment represents as the positive control group (P); while a negative control group (N) used 5 μl of 0.1 mg/ml RNase A (CLONTECH) in the assay. It could be observed that a number of telomeric fragments were detected in the positive control group (P), while none was detected in the negative control group (N). 10 μM was selected as the concentration used to screen compounds.

[2] = system: SVG p12, GBM8401 and GBM8901; assay: MTT assay, normal cell versus tumor cells (categories 39-3 to 39-7); details: tumor cell survival rate less than 80%; for category 39-4: survival rate higher than 80% for normal cell SVG p12 and only inhibits growth of tumor cell GBM8401: FIG. 5B
GBM8901 = assay: MTT assay, GBM8901 tumor cell; details: concentration 10 μM, tumor cell
SVG p12 = assay: MTT assay, SVG p12 normal cell; details: for Cell survival rate (%) SVG p12: concentration 10 μM, normal cell

Row | SMILES | Cell survival rate (%) GBM8401 (GBM8401) | inhibition effect against telomerase [1] | category 39-5: survival rate higher than 80% for normal cell SVG p12 and only inhibits growth of tumor cell GBM8901 ([2]; FIG. 5C) | Cell survival rate (%) GBM8901 (GBM8901) | Cell survival rate (%) SVG p12 (SVG p12) | without cell toxicity for normal cell SVGP p12 (SVG p12; survival rate higher than 80%) | category 39-3: survival rate higher than 80% for normal cell SVG p12 and inhibits growth of both tumor cells GBM8401 and GBM8901 ([2]; FIG. 5A) | category 39-4: survival rate higher than 80% for normal cell SVG p12 and only inhibits growth of tumor cell GBM8401 [2]
1 | O=C1c2ccccc2C(=O)c2c1ccc1nc(SCCCCCBr)[nH]c21 [f1-9, 2-(5-bromopentylthio)-1H-anthra[1,2-d]imidazole-6,11-dione] | 62 ± 19% | exhibited inhibition effect against telomerase | in this category | – | – | – | – | –
2 | O=C1c2ccccc2C(=O)c2c1ccc1nc(SCCN3CCCCC3)[nH]c21 [f1-12, 2-(2-(Piperidin-1-yl)ethylthio)-1H-anthra[1,2-d]imidazole-6,11-dione] | 6 ± 13% | exhibited inhibition effect against telomerase | – | 42 ± 8% | 22 ± 8% | – | – | –
3 | CCN(CC)C(=O)CSc1nc2ccc3c(c2[nH]1)C(=O)c1ccccc1C3=O [f1-18, 2-(6,11-dioxo-6,11-dihydro-1H-anthra[1,2-d]imidazol-2-ylthio)-N,N-diethylacetamide] | 23 ± 13% | exhibited inhibition effect against telomerase | – | 42 ± 3% | 65 ± 3% | – | – | –
4 | C=CCSc1nc2ccc3c(c2[nH]1)C(=O)c1ccccc1C3=O [f1-19, 2-(allylthio)-1H-anthra[1,2-d]imidazole-6,11-dione] | 42 ± 18% | exhibited inhibition effect against telomerase | – | 50 ± 6% | 89 ± 5% | without cell toxicity for normal cell SVGP p12 | in this category | –
5 | O=C1c2ccccc2C(=O)c2c1ccc1nc(SCC(=O)N3CCCC3)[nH]c21 [f1-21, 2-(2-oxo-2-(pyrrolidin-1-yl)ethylthio)-1H-anthra[1,2-d]imidazole-6,11-dione] | 30 ± 10% | exhibited inhibition effect against telomerase | – | 38 ± 5% | 63 ± 1% | – | – | –
6 | O=C(Sc1nc2ccc3c(c2[nH]1)C(=O)c1ccccc1C3=O)c1ccccc1[N+](=O)[O-] [f2-1, S-6,11-dioxo-6,11-dihydro-1H-anthra[1,2-d]imidazol-2-yl 2-nitrobenzothioate] | – | exhibited inhibition effect against telomerase | – | 58 ± 3% | – | – | – | in this category
7 | O=C1c2ccccc2C(=O)c2c1ccc1nc(SC(=O)N3CCOCC3)[nH]c21 [f2-2, S-6,11-dioxo-6,11-dihydro-1H-anthra[1,2-d]imidazol-2-yl morpholine-4-carbothioate] | 92 ± 11% | exhibited inhibition effect against telomerase | – | 43 ± 2% | 96 ± 7% | – | – | –
8 | CN1CCN(C(=O)Sc2nc3ccc4c(c3[nH]2)C(=O)c2ccccc2C4=O)CC1 [f2-3, S-6,11-dioxo-6,11-dihydro-1H-anthra[1,2-d]imidazol-2-yl 4-methylpiperazine-1-carbothioate] | 62 ± 11% | exhibited inhibition effect against telomerase | – | 38 ± 2% | 62 ± 3% | – | – | –
9 | Cc1cc(C(=O)Sc2nc3ccc4c(c3[nH]2)C(=O)c2ccccc2C4=O)c(C)o1 [f2-6, S-6,11-dioxo-6,11-dihydro-1H-anthra[1,2-d]imidazol-2-yl 2,5-dimethylfuran-3-carbothioate] | – | exhibited inhibition effect against telomerase | – | 38 ± 7% | – | – | – | in this category
